Reference: patent US11319299B2, “Substituted carboxamides as inhibitors of WDR5 protein-protein binding” (PROPELLON THERAPEUTICS INC., priority 2016, dated 2022)

What follows are compounds tested on MV4-11 cells (assay: Cell proliferation assay (ATPlite)). Settings: Homo sapiens, MV4-11, 120 h; MV-411 cells, five days; read-out: In vitro whole cell potency in MV-411 cells, (IC50).
Type: cell-based
Method: (iv) Cell Proliferation Assay
MV4-11 cells were seeded into a 96-well plate at 1,000 cells/well in 150 μl medium (Alpha-MEM containing 10% FBS, 100 μg/ml Normocin, and 50 μg/ml Gentamycin, Invitrogen). A HP D300 digital dispenser was used to dose cells with DMSO or test compounds across a 10-point range of concentrations (high dose of 10 μM), and cultures were grown in a humidified 5% CO2 incubator at 37° C. After five days, plates were removed from the incubator and equilibrated to room temperature. An equal volume of ATPlite assay reagent was added to each well, and samples were processed according to manufacturer's instructions (Perkin Elmer). Luminescent signal was measured using an Envision plate reader equipped with a US-Luminescence detector.

IC50 [nM] | SMILES
113 | CC1CN(c2cc(F)c(-c3ccc(N4CCOCC4)c(F)c3)cc2NC(=O)c2c[nH]c(=O)cc2C(F)(F)F)CCN1C (stereo in doubt) [Example 201, N-[4-fluoro-5-(3-fluoro-4-morpholin-4-ylphenyl)-2-[(3R)-3,4-dimethylpiperazin-1-yl]phenyl]-6-oxo-4-(trifluoromethyl)-1H-pyridine-3-carboxamide]
> 10000 | CN1CCN(c2cc(F)c(-c3cnc(NC4CC4)nc3)cc2NC(=O)c2c[nH]c(=O)cc2C(F)(F)F)CC1 [Example 10, N-(5-(2-(cyclopropylamino)pyrimidin-5-yl)-4-fluoro-2-(4-methylpiperazin-1-yl)phenyl)-6-oxo-4-(trifluoromethyl)-1,6-dihydropyridine-3-carboxamide]
> 10000 | CN1CCN(c2cc(F)c(-c3cncc(CN[C@@H]4CCOC4)c3)cc2NC(=O)c2c[nH]c(=O)cc2C(F)(F)F)CC1 [Example 49, (R)—N-(4-fluoro-2-(4-methylpiperazin-1-yl)-5-(5-(((tetrahydrofuran-3-yl)amino)methyl)pyridin-3-yl)phenyl)-6-oxo-4-(trifluoromethyl)-1,6-dihydropyridine-3-carboxamide]
507 | CN1CCN(c2cc(F)c(-c3cnc(N4CCCC4)nc3)cc2NC(=O)c2c[nH]c(=O)cc2C(F)(F)F)CC1 [Example 9, N-(4-fluoro-2-(4-methylpiperazin-1-yl)-5-(2-(pyrrolidin-1-yl)pyrimidin-5-yl)phenyl)-6-oxo-4-(trifluoromethyl)-1,6-dihydropyridine-3-carboxamide]
389 | COc1cc(N2C[C@@H](C)N(C)[C@@H](C)C2)c(NC(=O)c2c[nH]c(=O)cc2C(F)(F)F)cc1-c1cnc(N2CCOCC2)nc1 [Example 55, N-[4-methoxy-5-(2-morpholin-4-ylpyrimidin-5-yl)-2-[(3R,5S)-3,4,5-trimethylpiperazin-1-yl]phenyl]-6-oxo-4-(trifluoromethyl)-1H-pyridine-3-carboxamide]
435 | CN1CCN(c2ccc(-c3cnc(N4CCOCC4)nc3)cc2NC(=O)c2c[nH]c(=O)cc2C(F)(F)F)CC1 [Example 56, N-(2-(4-methylpiperazin-1-yl)-5-(2-morpholinopyrimidin-5-yl)phenyl)-6-oxo-4-(trifluoromethyl)-1,6-dihydropyridine-3-carboxamide]
2900 | C[C@@H]1CN(c2cc(F)c(-c3cccc(CN4CCOCC4)c3)cc2NC(=O)c2c[nH]c(=O)cc2C(F)(F)F)CCN1C [Example 50, (R)—N-(4-(3,4-dimethylpiperazin-1-yl)-6-fluoro-3′-(morpholinomethyl)-[1,1′-biphenyl]-3-yl)-6-oxo-4-(trifluoromethyl)-1,6-dihydropyridine-3-carboxamide]
31 | C[C@@H]1CN(c2ncc(-c3cc(NC(=O)c4c[nH]c(=O)cc4C(F)F)c(N4CCN(C)[C@@H](C)C4)cc3F)cn2)C[C@H](C)O1 [Example 395, 4-(difluoromethyl)-N-[4-fluoro-5-[2-[(2R,6S)-2,6-dimethylmorpholin-4-yl]pyrimidin-5-yl]-2-[(3S)-3,4-dimethylpiperazin-1-yl]phenyl]-6-oxo-1H-pyridine-3-carboxamide]
54 | CN(C)[C@@H]1CCN(c2cc(F)c(-c3cnc(N4CCOCC4)nc3)cc2NC(=O)c2c[nH]c(=O)cc2C(F)(F)F)C1 [Example 37, N-[2-[(3R)-3-(dimethylamino)pyrrolidin-1-yl]-4-fluoro-5-(2-morpholin-4-ylpyrimidin-5-yl)phenyl]-6-oxo-4-(trifluoromethyl)-1H-pyridine-3-carboxamide]
1520 | CN1CCN(c2cc(F)c(-c3ccc(NC4CCCCC4)nc3)cc2NC(=O)c2c[nH]c(=O)cc2C(F)(F)F)CC1 [Example 14, N-(5-(6-(cyclohexylamino)pyridin-3-yl)-4-fluoro-2-(4-methylpiperazin-1-yl)phenyl)-6-oxo-4-(trifluoromethyl)-1,6-dihydropyridine-3-carboxamide]
> 10000 | CN1CCN(c2cc(F)c(-c3cnc(O)nc3)cc2NC(=O)c2c[nH]c(=O)cc2C(F)(F)F)CC1 [Example 15, N-(4-fluoro-5-(2-hydroxypyrimidin-5-yl)-2-(4-methylpiperazin-1-yl)phenyl)-6-oxo-4-(trifluoromethyl)-1,6-dihydropyridine-3-carboxamide]
45 | C[C@@H]1CN(c2cc(F)c(-c3ccc(N4CCOCC4)cc3)cc2NC(=O)c2c[nH]c(=O)cc2C(F)(F)F)C[C@H](C)N1C [Example 29, N-[4-fluoro-5-(4-morpholin-4-ylphenyl)-2-[(3R,5S)-3,4,5-trimethylpiperazin-1-yl]phenyl]-6-oxo-4-(trifluoromethyl)-1H-pyridine-3-carboxamide]
669 | C[C@@H]1CN(c2cc(F)c(-c3cccnc3)cc2NC(=O)c2c[nH]c(=O)cc2C(F)(F)F)C[C@H](C)N1C [Example 35, N-[4-fluoro-5-pyridin-3-yl-2-[(3R,5S)-3,4,5-trimethylpiperazin-1-yl]phenyl]-6-oxo-4-(trifluoromethyl)-1H-pyridine-3-carboxamide]
850 | C[C@@H]1CN(c2cc(F)c(-c3ccncc3)cc2NC(=O)c2c[nH]c(=O)cc2C(F)(F)F)C[C@H](C)N1C [Example 36, N-[4-fluoro-5-pyridin-4-yl-2-[(3R,5S)-3,4,5-trimethylpiperazin-1-yl]phenyl]-6-oxo-4-(trifluoromethyl)-1H-pyridine-3-carboxamide]
67 | C[C@@H]1CN(c2cc(F)c(-c3ccc(N4CCOCC4)nc3)cc2NC(=O)c2c[nH]c(=O)cc2C(F)(F)F)C[C@H](C)N1C [Example 32, N-[4-fluoro-5-(6-morpholin-4-ylpyridin-3-yl)-2-[(3S,5R)-3,4,5-trimethylpiperazin-1-yl]phenyl]-6-oxo-4-(trifluoromethyl)-1H-pyridine-3-carboxamide]
389 | C[C@H]1CN(c2cc(F)c(-c3cccc(CN4CCOCC4)c3)cc2NC(=O)c2c[nH]c(=O)cc2C(F)(F)F)CCN1C [Example 51, (S)—N-(4-(3,4-dimethylpiperazin-1-yl)-6-fluoro-3′-(morpholinomethyl)-[1,1′-biphenyl]-3-yl)-6-oxo-4-(trifluoromethyl)-1,6-dihydropyridine-3-carboxamide]
571 | C[C@@H]1CN(c2cc(F)c(-c3cnc(C#N)nc3)cc2NC(=O)c2c[nH]c(=O)cc2C(F)(F)F)C[C@H](C)N1C [Example 31, N-[5-(2-cyanopyrimidin-5-yl)-4-fluoro-2-[(3S,5R)-3,4,5-trimethylpiperazin-1-yl]phenyl]-6-oxo-4-(trifluoromethyl)-1H-pyridine-3-carboxamide]
1470 | C[C@@H]1CN(c2ccc(-c3cnc(N4CCOCC4)nc3)cc2NC(=O)c2c[nH]c(=O)cc2C(F)(F)F)C[C@H](C)N1C [Example 58, N-(5-(2-morpholinopyrimidin-5-yl)-2-((3R,5S)-3,4,5-trimethylpiperazin-1-yl)phenyl)-6-oxo-4-(trifluoromethyl)-1,6-dihydropyridine-3-carboxamide]
> 10000 | CN1CCN(c2cc(F)c(-c3cncc(CNC4CCOCC4)c3)cc2NC(=O)c2c[nH]c(=O)cc2C(F)(F)F)CC1 [Example 48, N-(4-fluoro-2-(4-methylpiperazin-1-yl)-5-(5-(((tetrahydro-2H-pyran-4-yl)amino)methyl)pyridin-3-yl)phenyl)-6-oxo-4-(trifluoromethyl)-1,6-dihydropyridine-3-carboxmaide]
388 | CC1CN(c2cc(F)c(-c3cnc(N4CCOCC4)nc3)cc2NC(=O)c2cn(C)c(=O)cc2C(F)F)CCN1C (stereo in doubt) [Example 216, 4-(difluoromethyl)-N-[4-fluoro-5-(2-morpholin-4-ylpyrimidin-5-yl)-2-[(3R)-3,4-dimethylpiperazin-1-yl]phenyl]-1-methyl-6-oxopyridine-3-carboxamide]
> 10000 | CN1CCN(c2cc(F)c(-c3cnc(N(C)C)nc3)cc2NC(=O)c2c[nH]c(=O)cc2C(F)(F)F)CC1 [Example 40, N-[5-[2-(dimethylamino)pyrimidin-5-yl]-4-fluoro-2-(4-methylpiperazin-1-yl)phenyl]-6-oxo-4-(trifluoromethyl)-1H-pyridine-3-carboxamide]
2760 | Cc1cc(C(=O)Nc2cc(-c3cnc(N4CCOCC4)nc3)c(F)cc2N2C[C@@H](C)N(C)[C@@H](C)C2)cc(C)c1F [Example 28, 4-fluoro-N-[4-fluoro-5-(2-morpholin-4-ylpyrimidin-5-yl)-2-[(3R,5S)-3,4,5-trimethylpiperazin-1-yl]phenyl]-3,5-dimethylbenzamide]
491 | CC1CN(c2cc(F)c(-c3cccc(CN4CCOCC4)c3)cc2NC(=O)c2c[nH]c(=O)cc2C(F)(F)F)CCN1C (stereo not shown) [Example 45, N-(4-(3,4-dimethylpiperazin-1-yl)-6-fluoro-3′-(morpholinomethyl)-[1,1′-biphenyl]-3-yl)-6-oxo-4-(trifluoromethyl)-1,6-dihydropyridine-3-carboxamide]

SMILES | IC50 [nM]
CN(C)[C@H]1CCN(c2cc(F)c(-c3cnc(N4CCOCC4)nc3)cc2NC(=O)c2c[nH]c(=O)cc2C(F)(F)F)C1 [Example 38, N-[2-[(3S)-3-(dimethylamino)pyrrolidin-1-yl]-4-fluoro-5-(2-morpholin-4-ylpyrimidin-5-yl)phenyl]-6-oxo-4-(trifluoromethyl)-1H-pyridine-3-carboxamide] | 4070
CN1CCN(c2cc(F)c(C3=CCNCC3)cc2NC(=O)c2c[nH]c(=O)cc2C(F)(F)F)CC1 [Example 23, N-[4-fluoro-2-(4-methylpiperazin-1-yl)-5-(1,2,3,6-tetrahydropyridin-4-yl)phenyl]-6-oxo-4-(trifluoromethyl)-1H-pyridine-3-carboxamide] | > 10000
